Laboratory results as given in publication PMC7497412 (RSC Advances, 2020).
Converted amounts (≈) assume the structure as drawn.

Columns and labels:
Assay in all cases: microbe, parasite or virus in culture
Type in all cases: cell-based
M. tb R506/XDR = conditions: Mycobacterium tuberculosis, read-out: M. tb MIC R506/XDR
M. tb V2475/MDR = conditions: Mycobacterium tuberculosis, read-out: M. tb MIC V2475/MDR
M. tb TF274/XDR = conditions: Mycobacterium tuberculosis, read-out: M. tb MIC TF274/XDR
M. tb KZN494/MDR = conditions: Mycobacterium tuberculosis, read-out: M. tb MIC KZN494/MDR

SMILES | MIC (M. tb R506/XDR) | MIC (M. tb V2475/MDR) | MIC (M. tb TF274/XDR) | MIC (M. tb KZN494/MDR)
O=C(NC12CC3CC(CC(C3)C1)C2)c1ccc2ccccc2c1 [13d, N-(1-Adamantanyl)-2-naphthamide] | 3.27 µM (≈ 0.999 µg/mL) | 6.55 µM (≈ 2 µg/mL) | 3.27 µM (≈ 0.999 µg/mL) | 6.55 to 13.1 µM (≈ 2 to 4 µg/mL)
O=C(NC1CCCCCCC1)c1ccc2ccccc2c1 [13c, N-Cyclooctyl-2-naphthamide] | 3.55 µM (≈ 0.999 µg/mL) | 7.11 µM (≈ 2 µg/mL) | 3.55 µM (≈ 0.999 µg/mL) | 7.11 µM (≈ 2 µg/mL)
O=C(NC12CC3CC(CC(C3)C1)C2)c1cc(=O)c2c(Br)cccc2[nH]1 [8i, N-(1-Adamantanyl)-5-bromo-4-oxo-1,4-dihydroquinoline-2-carboxamide] | 4.98 µM (≈ 2 µg/mL) | 9.97 µM (≈ 4 µg/mL) | 4.98 µM (≈ 2 µg/mL) | 9.97 µM (≈ 4 µg/mL)
O=C(Nc1nc(-c2ccc(Cl)cc2Cl)cs1)C12CC3CC(CC(C3)C1)C2 [18b, N-(4-(2,4-Dichlorophenyl)thiazol-2-yl)adamantane-1-carboxamide] | 4.91 to 9.82 µM (≈ 2 to 4 µg/mL) | 19.6 µM (≈ 8 µg/mL) | 4.91 µM (≈ 2 µg/mL) | 9.82 µM (≈ 4 µg/mL)
